Experimental data from publication PMC9064041 (Journal of medicinal chemistry, 2020).
≈ marks a conversion by molar mass, not a printed value. Where “and” joins values, the source holds several entries; their conditions need not be identical. Identical values can stand only once.

Experiments:
[1] = tested on: C. difficile ATCC BAA 1801; assay: MIC, broth microdilution, initial screening; type: cell-based, Clostridioides difficile; conditions: for MIC: Clostridioides difficile, BAA1801, 48 h
[2] = tested on: Bacteroides fragilis HM-711; assay: MIC against normal gut microbiota; type: cell-based; conditions: HM711
[3] = tested on: C. difficile NR-32904 (P30); assay: MIC, broth microdilution, clinical isolate; type: cell-based; conditions: Clostridioides difficile
[4] = tested on: Lactobacillus crispatus HM-371; assay: MIC against normal gut microbiota; type: cell-based; conditions: HM371
[5] = tested on: Lactobacillus gasseri HM-400; assay: MIC against normal gut microbiota; type: cell-based; conditions: HM400
[6] = tested on: C. difficile NR-32891 (P13); assay: MIC, broth microdilution, clinical isolate; type: cell-based; conditions: Clostridioides difficile
[7] = tested on: Bacteroides fragilis HM-709; assay: MIC against normal gut microbiota; type: cell-based; conditions: HM709
C. difficile ATCC 43255 [8] = assay: MIC, broth microdilution, clinical isolate; type: cell-based; conditions: Clostridioides difficile, ATCC43255
[9] = tested on: Lactobacillus crispatus HM-103; assay: MIC against normal gut microbiota; type: cell-based; conditions: HM103
[10] = tested on: E. coli BW25113 (wild-type strain); assay: MIC, broth microdilution; type: cell-based, Escherichia coli; conditions: for MIC: Escherichia coli, BW25113
[11] = tested on: E. coli JW55031 (TolC Mutant); assay: MIC, broth microdilution; type: cell-based; conditions: Escherichia coli
Bacteroides spp = assay: MIC over Bacteroides species; type: cell-based; conditions: read-out: MIC against species of Bacteroides
[12] = tested on: C. difficile NR-13432 (isolate 6); assay: MIC, broth microdilution, clinical isolate; type: cell-based; conditions: Clostridioides difficile
[13] = tested on: C. difficile NR-13435 (isolate 9); assay: MIC, broth microdilution, clinical isolate; type: cell-based; conditions: Clostridioides difficile
C. difficile ATCC 43255 [14] = assay: Frequency of spontaneous mutation; conditions: for isolation of resistant mutants: high inoculum
Lactobacillus strains = assay: MIC over Lactobacillus strains; type: cell-based, Lactobacillus spp; conditions: read-out: MIC against Lactobacillus strains
Caco-2 bilayers = assay: Caco-2 bidirectional permeability assay; type: in vitro ADME, human
[15] = tested on: human colorectal cells (Caco-2); assay: In vitro cytotoxicity, MTS assay; type: cell-based; conditions: 2 hours incubation with compound
VRE clinical isolates = assay: MIC range over VRE clinical isolates; type: cell-based, vancomycin-resistant enterococci; conditions: Enterococcus, read-out: MICs ranging over VRE clinical isolates
E. faecalis ATCC 51299 = assay: MIC, broth microdilution; type: cell-based; conditions: Enterococcus faecalis, ATCC51299
E. faecium ATCC 700221 = assay: MIC, broth microdilution; type: cell-based; conditions: Enterococcus faecium, ATCC700221
[16] = tested on: C. difficile NR-32883 (P2); assay: MIC, broth microdilution, clinical isolate; type: cell-based; conditions: Clostridioides difficile
[17] = cited from earlier work
[18] = tested on: C. difficile infection (CDI); conditions: cited from earlier work
[19] = tested on: C. difficile NR-32895 (P19); assay: MIC, broth microdilution, clinical isolate; type: cell-based; conditions: Clostridioides difficile
[20] = 15 × MIC, inoculum ~10^9 CFU/mL
[21] = 20 × MIC, inoculum ~10^9 CFU/mL
[22] = C. difficile ATCC BAA 1801, anaerobic, 48 hours

SMILES | MIC [1, 22] | MIC [2] | MIC [4] | MIC [5] | MIC [7] | MIC (C. difficile ATCC 43255 [8]) | MIC [9] | MIC [10] | MIC [11] | MIC (E. faecalis ATCC 51299) | MIC (E. faecium ATCC 700221) | further results
Cc1ccc(-c2nnc(NC(=O)c3ccc(SC(F)(F)F)cc3)o2)cc1 [Compound 12, N-(5-(4-Methylphenyl)-1,3,4-oxadiazol-2-yl)-4-((trifluoromethyl)thio)benzamide] | – | – | – | – | – | – | – | – | – | – | – | activity against C. difficile ATCC BAA 1801 in words [1]: only moderate to no actvity
CCc1c(Cl)c(O)c(Cl)c(O)c1C(=O)O[C@H]1[C@H](O)[C@H](OC)[C@H](OC/C2=C\C=C\C[C@H](O)/C(C)=C/[C@H](CC)[C@@H](O[C@@H]3OC(C)(C)[C@@H](OC(=O)C(C)C)[C@H](O)[C@@H]3O)/C(C)=C/C(C)=C/C[C@@H]([C@@H](C)O)OC2=O)O[C@@H]1C [Fidaxomicin] | – | > 64 µg/mL and > 60.5 µM | > 64 µg/mL | > 64 µg/mL | > 64 µg/mL | 0.015 µg/mL (≈ 0.0142 µM) | > 64 µg/mL and > 60.5 µM | – | – | – | – | MIC [3]: 0.015 µg/mL (≈ 0.0142 µM); MIC [6]: 0.015 µg/mL (≈ 0.0142 µM)
CNC(C)C1CCC(N)C(OC2C(N)CC(N)C(OC3OCC(C)(O)C(NC)C3O)C2O)O1 (stereo not shown) [Gentamicin] | – | – | – | – | – | – | – | 0.25 µg/mL and 0.52 µM | 0.25 µg/mL and 0.52 µM | – | – | –
O=C(Nc1nnc(-c2cc(Cl)cc(Cl)c2)o1)c1ccc(SC(F)(F)F)cc1 [HSGN-218, N-(5-(3,5-Dichlorophenyl)-1,3,4-oxadiazol-2-yl)-4-((trifluoromethyl)thio)benzamide] | – | 2 µg/mL (≈ 4.61 µM) | 16 µg/mL (≈ 36.8 µM) | 16 µg/mL (≈ 36.8 µM) | 1 µg/mL (≈ 2.3 µM) | 0.015 µg/mL (≈ 0.0345 µM) | 16 µg/mL (≈ 36.8 µM) | > 16 µg/mL | 4 µg/mL (≈ 9.21 µM) | 0.06 µg/mL (≈ 0.138 µM) | 0.125 µg/mL (≈ 0.288 µM) | MIC (Bacteroides spp): 1 µg/mL to 2 µg/mL and 2.3 µM to 4.6 µM; MIC [12]: 0.03 µg/mL (≈ 0.0691 µM); MIC [13]: 0.003 µg/mL (≈ 0.00691 µM); isolation of resistant mutants (C. difficile ATCC 43255 [14]; 15 × MIC and 20 × MIC): No resistant mutants were isolated; Frequency of mutation (C. difficile ATCC 43255 [14]; [20]): <1.1× 10^−9; Frequency of mutation (C. difficile ATCC 43255 [14]; [21]): <1.1× 10^−9; MIC (Lactobacillus strains): 16 µg/mL (≈ 36.8 µM); Notes (permeability class) (Caco-2 bilayers): Low Permeability; concentration highly tolerable to Caco-2 cells [15]: higher than 64 μg/mL; MIC (VRE clinical isolates): 0.06 µg/mL to 0.125 µg/mL and 0.14 µM to 0.29 µM; activity against E. coli BW25113 in words ([10]; wild-type strain): inactive
CC(=O)NC[C@H]1CN(c2ccc(N3CCOCC3)c(F)c2)C(=O)O1 [Linezolid] | – | – | – | – | – | – | – | > 64 µg/mL and > 190 µM | 16 µg/mL (≈ 47.4 µM) | 1 µg/mL (≈ 2.96 µM) | 1 µg/mL (≈ 2.96 µM) | –
CC(C)NCC(O)COc1cccc2ccccc12 (stereo not shown) [Propranolol] | – | – | – | – | – | – | – | – | – | – | – | Notes (permeability class) (Caco-2 bilayers): High Permeability Control
CNC(=C[N+](=O)[O-])NCCSCc1ccc(CN(C)C)o1 [Ranitidine] | – | – | – | – | – | – | – | – | – | – | – | Notes (permeability class) (Caco-2 bilayers): Low Permeability Control
CN[C@H](CC(C)C)C(=O)N[C@H]1C(=O)N[C@@H](CC(N)=O)C(=O)N[C@H]2C(=O)N[C@H]3C(=O)N[C@H](C(=O)N[C@H](C(=O)O)c4cc(O)cc(O)c4-c4cc3ccc4O)[C@H](O)c3ccc(c(Cl)c3)Oc3cc2cc(c3O[C@@H]2O[C@H](CO)[C@@H](O)[C@H](O)[C@H]2O[C@H]2C[C@](C)(N)[C@H](O)[C@H](C)O2)Oc2ccc(cc2Cl)[C@H]1O [Vancomycin] | – | 64 µg/mL (≈ 44.2 µM) | 2 µg/mL (≈ 1.38 µM) | ≤ 1 µg/mL and ≤ 0.7 µM | 32 µg/mL (≈ 22.1 µM) | 1 µg/mL (≈ 0.69 µM) | 2 µg/mL (≈ 1.38 µM) | > 64 µg/mL | > 64 µg/mL | > 64 µg/mL | 32 µg/mL (≈ 22.1 µM) | MIC [16]: 0.5 µg/mL (≈ 0.345 µM); MIC [3]: 1 µg/mL (≈ 0.69 µM); MIC (Bacteroides spp): 32 µg/mL to 64 µg/mL and 22.1 µM to 44.2 µM; MIC [12]: 0.25 µg/mL (≈ 0.173 µM); MIC [13]: 1 µg/mL (≈ 0.69 µM); Frequency of mutation (C. difficile ATCC 43255 [14]; 15 × MIC and 20 × MIC): < 1.1× 10^−9; isolation of resistant mutants (C. difficile ATCC 43255 [14]; 15 × MIC and 20 × MIC): no resistant mutants were isolated; Frequency of mutation (C. difficile ATCC 43255 [14]; [20]): <1.1× 10^−9; Frequency of mutation (C. difficile ATCC 43255 [14]; [21]): <1.1× 10^−9; MIC (Lactobacillus strains): 1 µg/mL to 2 µg/mL and 0.7 µM to 1.4 µM; MIC [1]: 1 µg/mL (≈ 0.69 µM); MIC [6]: 0.5 µg/mL (≈ 0.345 µM); treatment failure [18]: 14%; MIC [19]: 1 µg/mL (≈ 0.69 µM)

Further lines, with some results ahead:

MIC [1, 22] | SMILES | MIC [2] | MIC [4] | MIC [5] | MIC [7] | MIC (C. difficile ATCC 43255 [8]) | MIC [9] | MIC [10] | MIC [11] | MIC (E. faecalis ATCC 51299) | MIC (E. faecium ATCC 700221) | further results
0.25 µg/mL (≈ 1.46 µM) | Cc1ncc([N+](=O)[O-])n1CCO [Metronidazole] | ≤ 1 µg/mL | > 64 µg/mL | > 64 µg/mL | 2 µg/mL (≈ 11.7 µM) | 0.25 µg/mL (≈ 1.46 µM) | > 64 µg/mL and > 374 µM | – | – | > 64 µg/mL | > 64 µg/mL | MIC [16]: 0.125 µg/mL (≈ 0.73 µM); MIC [3]: 0.25 µg/mL (≈ 1.46 µM); MIC [12]: 0.25 µg/mL (≈ 1.46 µM); MIC [13]: 0.125 µg/mL (≈ 0.73 µM); MIC [6]: 0.125 µg/mL (≈ 0.73 µM); bioavailable (absorption from the intestinal tract) [17]: 100%; treatment failure [18]: 22%; MIC [19]: 0.25 µg/mL (≈ 1.46 µM)
2 µg/mL (≈ 5.47 µM) | O=C(Nc1nnc(-c2ccccc2)o1)c1ccc(SC(F)(F)F)cc1 [compound 1, N-(5-Phenyl-1,3,4-oxadiazol-2-yl)-4-((trifluoromethyl)thio)benzamide] | – | – | – | – | – | – | – | – | – | – | –
4 µg/mL (≈ 10.4 µM) | O=C(Nc1nnc(-c2ccccc2F)o1)c1ccc(SC(F)(F)F)cc1 [compound 2, N-(5-(2-Fluorophenyl)-1,3,4-oxadiazol-2-yl)-4-((trifluoromethyl)thio)benzamide] | – | – | – | – | – | – | – | – | – | – | –
4 µg/mL (≈ 10 µM) | O=C(Nc1nnc(-c2ccccc2Cl)o1)c1ccc(SC(F)(F)F)cc1 [compound 3, N-(5-(2-Chlorophenyl)-1,3,4-oxadiazol-2-yl)-4-((trifluoromethyl)thio)benzamide] | – | – | – | – | – | – | – | – | – | – | –
